{
  "source": "paper PMC6934184",
  "about": "“Selective DNA-PKcs inhibition extends the therapeutic index of localized radiotherapy and chemotherapy” (The Journal of Clinical Investigation, 2019)",
  "biological_target": "T1, LYN A (Homo sapiens, UniProt P07948)",
  "T1 construct": "purchased Thermo Fisher Scientific (Life Technologies) SelectScreen",
  "T1 sequence (P07948 whole entry)": "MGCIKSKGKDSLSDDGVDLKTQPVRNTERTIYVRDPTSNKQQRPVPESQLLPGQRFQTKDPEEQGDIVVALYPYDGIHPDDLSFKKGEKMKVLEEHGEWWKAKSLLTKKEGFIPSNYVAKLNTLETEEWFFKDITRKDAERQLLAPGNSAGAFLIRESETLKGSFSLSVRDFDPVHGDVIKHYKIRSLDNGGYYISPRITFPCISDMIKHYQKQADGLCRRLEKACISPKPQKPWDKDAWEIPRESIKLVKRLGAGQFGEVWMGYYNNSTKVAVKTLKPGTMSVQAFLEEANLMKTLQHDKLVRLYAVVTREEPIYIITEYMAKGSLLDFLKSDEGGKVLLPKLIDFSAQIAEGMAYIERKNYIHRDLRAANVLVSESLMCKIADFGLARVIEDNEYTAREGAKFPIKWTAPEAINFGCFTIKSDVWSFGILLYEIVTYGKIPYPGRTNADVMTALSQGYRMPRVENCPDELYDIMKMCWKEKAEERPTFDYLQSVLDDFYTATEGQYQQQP",
  "assay": "SelectScreen Z'LYTE",
  "format": "biochemical",
  "procedure,_shortened": "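SelectScreen broad panel; activity (Z'LYTE, Adapta) plus binding formats. ATP: Km app for CSF1R Z'LYTE; 10 for CAMK1 Adapta. Readout = % per kinase.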",
  "data": [
    {"smiles": "CN(C(=O)CN1CCOCC1)c1ccc2sc3c(-c4cccc5c(=O)cc(N6CC7CCC(C6)O7)oc45)cccc3c2c1", "note": "[NU5455]", "values": [
      {"measurement": "inhibition at 1 µM", "result": 15.2, "unit": "%"}
    ]}
  ]
}
